From patent US7691862B2, “Method and composition for treating periodontal disease” (Regena Therapeutics LC, priority 2003, dated 2010)
Where two headings read alike, the source gives them in different places. Marks after values point to notes of the source that are not given here.

Key:
[1] = system: periodontal pockets of patients with moderate-to-advanced periodontitis; test: Randomized double-blind placebo-controlled study: change in periodontal pocket probing depth after scaling, root planing and curettage; assay type: in vivo, human
Experimental: 1.1 Overall Study Design and Plan This was a randomized, double-blind, single-center, multiple-dose, parallel-group, placebo-controlled study. At baseline, patients presenting at Periodontal Specialists of Ames for the treatment of periodontitis were screened for the study. Patients were assessed using medical histories, dental histories, blood pressure, pulse, pregnancy tests (if female), periapical radiographs and periodontal examinations. Patients who met all of the inclusion and exclusion criteria, appeared in good health other than periodontitis, and who had documented moderate-to-advanced periodontitis with at least four destructive periodontal-diseased pockets (ranging from 5 to 12 mm in depth) were eligible for study participation. Each patient underwent a gross debridement, following which, he/she was randomized to one of four treatment groups:
Patients randomized to receive doxycycline (Groups B and C) were administered a loading dose of doxycycline 100 mg BID for one day and then instructed to take doxycycline 100 mg QD for nine consecutive days; patients in Groups A and D received matching doxycycline placebo for ten days.
On the last day of doxycycline/placebo administration, patients reported to the clinical research facility and underwent (under local anesthesia) dental sub-gingival scaling, root planing, and curettage on one side of the mouth. Following completion of these procedures, patients randomized to misoprostol (Groups C and D) received an application of a misoprostol paste (10 ug/site) and those randomized to placebo (Groups A and B) received placebo paste. Patients were instructed to apply the paste to each quadrant four times daily for the next week. One week later, patients returned to the clinical research facility and underwent sub-gingival scaling, root planing, and curettage on the other side of the mouth. The misoprostol/placebo paste was administered as described above. Patients were instructed to apply the paste to the affected teeth four times daily for an additional six weeks. They were also instructed to the proper use of the rubber tip for six weeks.
At two weeks post-treatment, patients were contacted for adverse event monitoring and compliance with study drug administration. Six weeks following the second sub-gingival scaling, planing, and curettage procedure, patients returned to the clinical research facility for periodontal and adverse event assessments. Dental prophylaxis, including periodontal maintenance was repeated at the three month intervals, with final assessments performed at 52 weeks post-treatment.
The initial dose of the misoprostol/placebo paste was applied by the periodontist, and all subsequent doses were applied by the patient. Each affected tooth was wiped with a 2×2 sponge to dry the tissue. Then 0.2 ml of the paste was dispensed from the 10.0 ml syringe onto the tip of the finger and applied to each affected tooth. The patient then sipped a little water and gently flushed the paste to gel it. Patients were instructed not to eat anything for at least one hour.
1.5.1.2.1. Periodontal Pocket Probing Depth Periodontal probing depths were measured at baseline, at six weeks post-treatment, and at 3, 6, 9 and 12 months post-treatment. More recently, a larger study at three weeks post treatment was performed as described in Example
To measure the periodontal pocket probing depth, a manual University of Michigan off-set probe marked in millimeters was inserted into the pocket with the long axis parallel to the long axis of the tooth. Insertion was continued to the base of the pocket with gentle pressure until a distinct resistance was felt.
The measurement from the tip of the probe to the gingival margin (GM-BP, gingival margin to the base of the pocket) was recorded in millimeters. On measurements of proximal sites the gingival margin may cross the probe at an angle, and the highest point on the side of the probe was read. […]

[2] = cited from earlier work
[3] = biological target: albumin (Homo sapiens, UniProt P02768); conditions: cited from earlier work
[4] = in vivo; cited from earlier work
[5] = system: canine mandible alveolar bone; conditions: cited from earlier work
[6] = system: mammalian calvarial cells; conditions: in vitro culture; cited from earlier work
[7] = 6 Weeks post-treatment, baseline pocket depth 5 mm
[8] = 6 Weeks post-treatment, baseline pocket depth 6 mm
[9] = 6 Weeks post-treatment, baseline pocket depth 7 mm
[10] = 6 Weeks post-treatment, baseline pocket depth 8 mm
[11] = 6 Weeks post-treatment, baseline pocket depth 9 mm
[12] = 6 Weeks post-treatment, baseline pocket depth 10 mm
[13] = 6 Weeks post-treatment, baseline pocket depth ≦4 mm
[14] = 52 Weeks post-treatment, baseline pocket depth 5 mm
[15] = 52 Weeks post-treatment, baseline pocket depth 6 mm
[16] = 52 Weeks post-treatment, baseline pocket depth 7 mm
[17] = 52 Weeks post-treatment, baseline pocket depth 8 mm
[18] = 52 Weeks post-treatment, baseline pocket depth 9 mm
[19] = 52 Weeks post-treatment, baseline pocket depth 10 mm
[20] = 52 Weeks post-treatment, baseline pocket depth ≦4 mm

albumin, sequence (P02768 25-609, species assumed): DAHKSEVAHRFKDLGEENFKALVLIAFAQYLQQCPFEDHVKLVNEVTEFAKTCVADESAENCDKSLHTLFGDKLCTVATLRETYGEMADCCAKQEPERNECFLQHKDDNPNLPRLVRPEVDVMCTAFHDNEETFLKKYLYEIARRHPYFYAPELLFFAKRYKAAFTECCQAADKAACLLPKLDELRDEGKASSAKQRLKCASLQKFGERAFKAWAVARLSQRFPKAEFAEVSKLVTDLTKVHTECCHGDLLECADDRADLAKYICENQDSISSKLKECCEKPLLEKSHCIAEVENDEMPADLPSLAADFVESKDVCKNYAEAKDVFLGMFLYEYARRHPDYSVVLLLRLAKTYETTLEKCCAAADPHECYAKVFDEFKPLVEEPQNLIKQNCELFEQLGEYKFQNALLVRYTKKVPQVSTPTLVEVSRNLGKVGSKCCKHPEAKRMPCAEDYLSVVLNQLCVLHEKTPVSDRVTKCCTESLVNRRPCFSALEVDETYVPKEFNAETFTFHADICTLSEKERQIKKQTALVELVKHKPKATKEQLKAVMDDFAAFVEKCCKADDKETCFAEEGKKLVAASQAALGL

Row | SMILES | Mean Changes in Pocket Depths Using Patient as Inference [1, 7] | Mean Changes in Pocket Depths Using Patient as Inference [1, 8] | Mean Changes in Pocket Depths Using Patient as Inference [1, 9] | Mean Changes in Pocket Depths Using Patient as Inference [1, 10] | Mean Changes in Pocket Depths Using Patient as Inference [1, 11] | Mean Changes in Pocket Depths Using Patient as Inference [1, 12] | Mean Changes in Pocket Depths Using Patient as Inference [1, 13] | Mean Changes in Pocket Depths Using Patient as Inference [1, 14] | Mean Changes in Pocket Depths Using Patient as Inference [1, 15] | Mean Changes in Pocket Depths Using Patient as Inference [1, 16] | Mean Changes in Pocket Depths Using Patient as Inference [1, 17] | Mean Changes in Pocket Depths Using Patient as Inference [1, 18] | Mean Changes in Pocket Depths Using Patient as Inference [1, 19] | Mean Changes in Pocket Depths Using Patient as Inference [1, 20] | further results
1 | C[C@H]1c2cccc(O)c2C(=O)C2=C(O)[C@]3(O)C(=O)C(C(N)=O)=C(O)[C@@H](N(C)C)[C@@H]3[C@@H](O)[C@@H]21 [Doxycycline] | 1.96* mm | 2.63* mm | 3.04* mm | 3.57* mm | 4.23* mm | 4.13 mm | 0.84 mm | 0.42 mm | 0.79 mm | 1.42 mm | 1.71 mm | 2.86 mm | 3.28 mm | −0.22* mm | improvement in pocket depth (from the Figures) ([1]; pocket depth originally 10 mm, Week 52): 3 mm; reduction in depth (from the Figures) ([1]; pocket depth originally 10 mm, at 6 weeks): ~5 mm
2 | CCCC[C@@](C)(O)C/C=C/[C@H]1[C@H](O)CC(=O)[C@@H]1CCCCCCC(=O)OC (racemic) [Misoprostol, methyl-(11α, 13E)-11,16-dihydroxy-16-methyl-9-oxoprost-13-en-1-oate] | 1.57 mm | 2.13 mm | 2.68 mm | 2.84 mm | 4.46* mm | 4.70 mm | 0.58 mm | 1.76*† mm | 2.49† mm | 3.28*† mm | 3.90*† mm | 5.06*† mm | 4.75 mm | 0.75*† mm | improvements in pocket depths compared to scaling, root planning and curettage alone ([1]; 52 weeks post-treatment): statistically significant improvements; mean changes in pocket depths compared to doxycycline+placebo ([1]; 52 weeks post-treatment, Wilcoxon rank-sum): statistically significantly greater improvements; tooth mobility ([1]; along with the decreases in pocket depth): decreases in tooth mobility; patients requiring surgical intervention to stop the progression of the disease ([1]; in vivo): none of the patients; reduction in pocket depth ([1]; original pocket depth 10 mm or greater, after 6 weeks): 40-50%; storage stability ([2]; dissolved in absolute alcohol (ethanol) and frozen): stable for at least a year; storage stability ([2]; dry state, stabilized with hydroxypropyl methyl cellulose): a couple years; stability of creams ([2]; in the presence of water, breaks down to prostaglandin A): creams last approximately only one week
3 | CCCCC(C)(O)C/C=C/[C@H]1[C@H](O)CC(=O)[C@@H]1CCCCCCC(=O)O (mixture of isomers) [Misoprostolic acid] | – | – | – | – | – | – | – | – | – | – | – | – | – | – | albumin bound [3]: approximately 85%; half-life [4]: about 30 minutes
4 | CCCCC[C@H](O)/C=C/[C@H]1[C@H](O)CC(=O)[C@@H]1CCCCCCC(=O)O [PGE1, prostaglandin E1] | – | – | – | – | – | – | – | – | – | – | – | – | – | – | new bone formation; thickness and appositional rate of alveolar bone ([5]; local application, adult dogs (Marks 1988)): increases the thickness and appositional rate of alveolar bone; alveolar bone height, cementum and periodontal ligaments ([5]; local delivery, premolars and molars of adult dogs (Marks 1994)): increases alveolar bone height and regenerates cementum and periodontal ligaments; formation of mineralized nodules [6]: increases the formation of mineralized nodules
